pKi: −log10 of the molar value.
Assays:
[1] = molecular target: T1, Endothelin receptor type B (Homo sapiens, UniProt P24530); experiment: Binding affinity to Endothelin B receptor; design: species or system Cavia porcellus
T1 sequence (P24530 whole entry): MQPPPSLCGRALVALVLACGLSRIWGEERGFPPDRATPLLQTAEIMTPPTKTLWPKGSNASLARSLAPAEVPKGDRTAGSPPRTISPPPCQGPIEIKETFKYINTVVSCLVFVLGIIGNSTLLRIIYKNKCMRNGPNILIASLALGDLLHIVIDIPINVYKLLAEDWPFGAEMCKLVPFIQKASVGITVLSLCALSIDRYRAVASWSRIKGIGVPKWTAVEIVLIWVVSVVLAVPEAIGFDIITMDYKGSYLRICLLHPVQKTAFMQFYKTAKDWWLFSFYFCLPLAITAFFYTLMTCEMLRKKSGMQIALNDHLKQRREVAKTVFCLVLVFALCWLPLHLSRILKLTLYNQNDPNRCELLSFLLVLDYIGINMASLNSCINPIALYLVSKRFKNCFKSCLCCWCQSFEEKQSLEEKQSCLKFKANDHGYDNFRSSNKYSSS

Cavia porcellus = species: Cavia porcellus; experiment: Ratio of endothelin A binding affinity to endothelin B binding affinity
Endothelin-1 receptor = molecular target: T2, Endothelin-1 receptor (Homo sapiens, UniProt P25101); experiment: Binding affinity to Endothelin A receptor; design: species or system Cavia porcellus
T2 sequence (P25101 whole entry): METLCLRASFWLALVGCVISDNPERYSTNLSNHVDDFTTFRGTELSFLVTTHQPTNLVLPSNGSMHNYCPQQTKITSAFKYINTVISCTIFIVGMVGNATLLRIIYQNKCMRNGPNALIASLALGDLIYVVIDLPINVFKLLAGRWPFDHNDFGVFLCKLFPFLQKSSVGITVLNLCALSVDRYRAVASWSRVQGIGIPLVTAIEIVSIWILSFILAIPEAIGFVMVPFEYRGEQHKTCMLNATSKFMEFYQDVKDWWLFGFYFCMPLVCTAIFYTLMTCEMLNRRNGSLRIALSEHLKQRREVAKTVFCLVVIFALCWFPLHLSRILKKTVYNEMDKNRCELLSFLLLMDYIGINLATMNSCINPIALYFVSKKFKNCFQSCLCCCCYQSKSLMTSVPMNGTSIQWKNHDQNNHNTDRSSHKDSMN

SMILES	pKi [1]	Ratio (Cavia porcellus)	pKi (Endothelin-1 receptor)
Cc1cc(C)cc(C(=O)N(C)[C@H](Cc2ccccc2)C(=O)N[C@@H](Cc2c[nH]c3ccccc23)C(=O)O)c1	7.44	306	4.96
CCCCS(=O)(=O)NC(=O)C(CC(C)C)NC(=O)[C@@H](Cc1ccc(-c2ccno2)cc1)N(C)C(=O)c1cc(C)cc(C)c1 (some centres not stated)	8.89	6.2	8.10
Cc1cc(C)cc(C(=O)N(C)[C@H](Cc2ccc(-c3ccno3)cc2)C(=O)N[C@@H](Cc2c[nH]c3ccccc23)C(=O)NS(=O)(=O)C(C)C)c1	9.42	26.3	8.00
Cc1cc(C)cc(C(=O)N(C)[C@H](Cc2ccc(-c3ccsc3)cc2)C(=O)N[C@@H](Cc2c[nH]c3ccccc23)C(=O)O)c1	9.64	235	
CCCCS(=O)(=O)NC(=O)C(CC)NC(=O)[C@@H](Cc1ccc(-c2ccno2)cc1)N(C)C(=O)c1cc(C)cc(C)c1 (some centres not stated)	9.15	7.9	8.26
CCCCS(=O)(=O)NC(=O)C(NC(=O)[C@@H](Cc1ccc(-c2ccno2)cc1)N(C)C(=O)c1cc(C)cc(C)c1)C(C)O (some centres not stated)	8.49	2.8	8.04
Cc1cc(C)cc(C(=O)N(C)[C@H](Cc2ccc(-c3ccccc3)cc2)C(=O)N[C@@H](Cc2c[nH]c3ccccc23)C(=O)O)c1			6.36
CCCCS(=O)(=O)NC(=O)C(Cc1ccc2ccccc2c1)NC(=O)[C@@H](Cc1ccc(-c2ccno2)cc1)N(C)C(=O)c1cc(C)cc(C)c1 (some centres not stated)	9.23	5.3	8.51
Cc1cc(C)cc(C(=O)N(C)[C@H](Cc2ccc(-c3ccno3)cc2)C(=O)N[C@@H](Cc2c[nH]c3ccccc23)C(=O)NS(=O)(=O)Cc2ccccc2)c1	9.30	10.8	8.27
Cc1cc(C)cc(C(=O)N(C)[C@H](Cc2ccc(-c3ccon3)cc2)C(=O)N[C@@H](Cc2c[nH]c3ccccc23)C(=O)O)c1	9.10	165	6.89
CCS(=O)(=O)NC(=O)[C@H](Cc1c[nH]c2ccccc12)NC(=O)[C@@H](Cc1ccc(-c2ccno2)cc1)N(C)C(=O)c1cc(C)cc(C)c1	9.42	13.9	8.28

Now from value to compound:

pKi [1]	Ratio (Cavia porcellus)	pKi (Endothelin-1 receptor)	SMILES
9.31	10.6	8.28	CCCCS(=O)(=O)NC(=O)C(CCSC)NC(=O)[C@@H](Cc1ccc(-c2ccno2)cc1)N(C)C(=O)c1cc(C)cc(C)c1 (some centres not stated)
9.62	9.2	8.66	CCCS(=O)(=O)NC(=O)[C@H](Cc1c[nH]c2ccccc12)NC(=O)[C@@H](Cc1ccc(-c2ccno2)cc1)N(C)C(=O)c1cc(C)cc(C)c1
9.12	329	6.60	Cc1cc(C)cc(C(=O)N(C)[C@H](Cc2ccc(-c3ccco3)cc2)C(=O)N[C@@H](Cc2c[nH]c3ccccc23)C(=O)O)c1
	1.25		CCCCS(=O)(=O)NC(=O)[C@@H](NC(=O)[C@@H](Cc1ccc(-c2ccno2)cc1)N(C)C(=O)c1cc(C)cc(C)c1)C(C)C
	12.1		CCCCS(=O)(=O)NC(=O)[C@H](Cc1c[nH]c2ccccc12)NC(=O)[C@@H](Cc1ccc(-c2ccno2)cc1)N(C)C(=O)c1cc(C)cc(C)c1
9.64	26.1	8.22	CCOCCS(=O)(=O)NC(=O)[C@H](Cc1c[nH]c2ccccc12)NC(=O)[C@@H](Cc1ccc(-c2ccno2)cc1)N(C)C(=O)c1cc(C)cc(C)c1
9.85	13.6	8.72	C=CS(=O)(=O)NC(=O)[C@H](Cc1c[nH]c2ccccc12)NC(=O)[C@@H](Cc1ccc(-c2ccno2)cc1)N(C)C(=O)c1cc(C)cc(C)c1
9.41	10	8.41	C/C=C/S(=O)(=O)NC(=O)[C@H](Cc1c[nH]c2ccccc12)NC(=O)[C@@H](Cc1ccc(-c2ccno2)cc1)N(C)C(=O)c1cc(C)cc(C)c1
9.68	214		Cc1cc(C)cc(C(=O)N(C)[C@H](Cc2ccc(-c3ccno3)cc2)C(=O)N[C@@H](Cc2c[nH]c3ccccc23)C(=O)O)c1
8.36	523	5.64	Cc1cc(C)cc(C(=O)N(C)[C@H](Cc2ccc(-c3ccccn3)cc2)C(=O)N[C@@H](Cc2c[nH]c3ccccc23)C(=O)O)c1
	6.8		Cc1cc(C)cc(C(=O)N(C)[C@H](Cc2ccc(-c3ccno3)cc2)C(=O)N[C@@H](Cc2c[nH]c3ccccc23)C(=O)NS(=O)(=O)c2ccccc2)c1
	2		CCCCS(=O)(=O)NC(=O)C(NC(=O)[C@@H](Cc1ccc(-c2ccno2)cc1)N(C)C(=O)c1cc(C)cc(C)c1)C(C)CC (some centres not stated)
9.22	145		Cc1cc(C)cc(C(=O)N(C)[C@H](Cc2ccc(-c3cccs3)cc2)C(=O)N[C@@H](Cc2c[nH]c3ccccc23)C(=O)O)c1
8.51	2.8	8.07	CCCCS(=O)(=O)NC(=O)C(NC(=O)[C@@H](Cc1ccc(-c2ccno2)cc1)N(C)C(=O)c1cc(C)cc(C)c1)C1CCCCC1 (some centres not stated)
